Active and inactive are the calls of the source. The calls are words filed in the database; no cut-off is given here.
How the values were obtained:
[1] = molecular target: T1, Dual specificity tyrosine-phosphorylation-regulated kinase 1A (Homo sapiens, UniProt Q13627); assay: Inhibition of FLAG-tagged full-length human recombinant DYRK1A (127 to 485 residues) expressed in Escherichia coli assessed as reduction in TAU intermolecular phosphorylation incubated for 30 mins by Western blot analysis
[2] = molecular target: T1, Dual specificity tyrosine-phosphorylation-regulated kinase 1A; assay: Inhibition of FLAG-tagged full-length human recombinant DYRK1A (127 to 485 residues) expressed in Escherichia coli assessed as reduction in phosphorylated tyrosine level by Western blot analysis; details: dose <= 32.0 µM, DDE = dose-dependent effect
HEK293 = assay: Cytotoxicity against HEK293 cells up to 8 uM; assay type: toxicity, cell-based; details: human, hek293, 8 µM
[3] = molecular target: Serine/threonine-protein kinase D1 (Homo sapiens) (UniProt Q15139); assay: Inhibition of recombinant PKD1 in HEK293 cells at 32 uM using DYRKtide peptide as substrate incubated for 45 mins in presence of ATP by Kinase-Glo Luminescent kinase assay
Serine/threonine-protein kinase D1 (Homo sapiens), sequence (Q15139 whole entry, looked up, the tested form may be a part): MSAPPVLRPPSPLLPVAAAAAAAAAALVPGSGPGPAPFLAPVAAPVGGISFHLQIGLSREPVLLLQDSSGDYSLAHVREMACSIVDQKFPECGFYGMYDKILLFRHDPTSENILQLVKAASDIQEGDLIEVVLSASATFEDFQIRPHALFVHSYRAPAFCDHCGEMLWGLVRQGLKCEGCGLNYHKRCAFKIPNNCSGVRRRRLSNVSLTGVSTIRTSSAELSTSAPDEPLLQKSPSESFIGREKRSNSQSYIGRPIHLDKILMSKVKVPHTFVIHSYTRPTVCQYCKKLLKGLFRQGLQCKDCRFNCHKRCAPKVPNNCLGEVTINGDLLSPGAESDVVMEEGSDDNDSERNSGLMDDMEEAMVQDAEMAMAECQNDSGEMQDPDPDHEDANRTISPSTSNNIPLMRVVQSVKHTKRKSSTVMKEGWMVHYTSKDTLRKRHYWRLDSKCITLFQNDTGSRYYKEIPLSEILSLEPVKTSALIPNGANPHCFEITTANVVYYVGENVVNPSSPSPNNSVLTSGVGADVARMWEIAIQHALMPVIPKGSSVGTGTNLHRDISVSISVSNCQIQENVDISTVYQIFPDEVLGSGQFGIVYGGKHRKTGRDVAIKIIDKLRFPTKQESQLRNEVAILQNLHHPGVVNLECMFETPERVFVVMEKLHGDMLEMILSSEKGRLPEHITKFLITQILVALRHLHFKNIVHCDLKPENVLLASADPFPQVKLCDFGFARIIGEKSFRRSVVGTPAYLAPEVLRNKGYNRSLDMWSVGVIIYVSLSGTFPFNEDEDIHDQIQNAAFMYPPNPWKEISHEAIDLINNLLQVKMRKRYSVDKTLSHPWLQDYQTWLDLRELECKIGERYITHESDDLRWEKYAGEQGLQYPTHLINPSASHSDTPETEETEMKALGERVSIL

[4] = molecular target: T1, Dual specificity tyrosine-phosphorylation-regulated kinase 1A; assay: Inhibition of FLAG-tagged full-length human recombinant DYRK1A (127 to 485 residues) expressed in Escherichia coli assessed as reduction in autophosphorylation at Ser97 residue by Western blot analysis
[5] = molecular target: T1, Dual specificity tyrosine-phosphorylation-regulated kinase 1A; assay: Induction of degradation of endogenous FLAG-tagged full-length human recombinant DYRK1A (127 to 485 residues) expressed in Escherichia coli in HEK293 cells assessed as decrease in protein level measured after 4 days by Western blot analysis; details: dose <= 8.0 µM, time 4.0 day, DDE = dose-dependent effect
[6] = molecular target: Rho-associated protein kinase 1 (Homo sapiens) (UniProt Q13464); assay: Inhibition of ROCK1 in HEK293 cells at 1 to 2 uM measured after 4 days by Western blot analysis; assay type: cell-based; details: dose 1-2 µM, time 4.0 day
Rho-associated protein kinase 1 (Homo sapiens), sequence (Q13464 2-1354 limits assumed): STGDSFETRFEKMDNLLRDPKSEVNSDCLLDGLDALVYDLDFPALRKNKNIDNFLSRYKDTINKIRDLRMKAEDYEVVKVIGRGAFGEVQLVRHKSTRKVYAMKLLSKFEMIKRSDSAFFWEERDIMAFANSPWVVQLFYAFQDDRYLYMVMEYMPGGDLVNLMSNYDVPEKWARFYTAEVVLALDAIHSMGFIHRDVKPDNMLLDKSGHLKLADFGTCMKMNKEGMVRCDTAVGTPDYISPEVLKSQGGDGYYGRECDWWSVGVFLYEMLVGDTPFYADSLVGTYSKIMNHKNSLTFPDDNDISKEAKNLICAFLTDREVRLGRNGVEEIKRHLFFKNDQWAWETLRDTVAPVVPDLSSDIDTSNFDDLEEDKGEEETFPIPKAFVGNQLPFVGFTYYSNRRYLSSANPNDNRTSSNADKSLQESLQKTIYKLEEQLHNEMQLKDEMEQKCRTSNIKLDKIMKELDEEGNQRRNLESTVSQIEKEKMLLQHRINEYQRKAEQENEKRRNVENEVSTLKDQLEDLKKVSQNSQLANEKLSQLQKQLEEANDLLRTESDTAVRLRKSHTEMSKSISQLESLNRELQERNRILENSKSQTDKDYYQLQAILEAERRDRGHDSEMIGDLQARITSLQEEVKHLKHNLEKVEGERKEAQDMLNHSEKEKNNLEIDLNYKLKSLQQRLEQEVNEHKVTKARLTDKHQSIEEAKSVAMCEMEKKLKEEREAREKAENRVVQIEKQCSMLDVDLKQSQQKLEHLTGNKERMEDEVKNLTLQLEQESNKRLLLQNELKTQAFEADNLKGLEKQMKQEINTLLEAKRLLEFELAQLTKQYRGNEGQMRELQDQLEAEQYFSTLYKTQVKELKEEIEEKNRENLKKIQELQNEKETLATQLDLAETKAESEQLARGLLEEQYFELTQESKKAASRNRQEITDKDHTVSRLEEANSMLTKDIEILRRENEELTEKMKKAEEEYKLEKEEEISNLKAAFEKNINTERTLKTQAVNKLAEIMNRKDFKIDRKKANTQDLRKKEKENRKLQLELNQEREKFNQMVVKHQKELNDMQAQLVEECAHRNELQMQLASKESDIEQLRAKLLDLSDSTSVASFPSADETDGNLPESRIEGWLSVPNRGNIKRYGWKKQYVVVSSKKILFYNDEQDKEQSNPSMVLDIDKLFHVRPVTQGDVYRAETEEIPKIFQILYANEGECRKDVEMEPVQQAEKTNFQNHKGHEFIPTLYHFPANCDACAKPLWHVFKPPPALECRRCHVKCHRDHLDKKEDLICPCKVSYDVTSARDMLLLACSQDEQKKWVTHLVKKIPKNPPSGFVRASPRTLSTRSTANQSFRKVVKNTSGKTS

[7] = molecular target: Serine/threonine-protein kinase D1 (Homo sapiens) (UniProt Q15139); assay: Inhibition of PKD1 in HEK293 cells at 1 to 2 uM measured after 4 days by Western blot analysis; details: dose 1-2 µM, time 4.0 day

IC50 [4] [µM] | SMILES | inhibition [2] | Activity (HEK293) | inhibition [3] | other results
– | CCOc1cc(/C=C2\SC(=S)NC2=O)ccc1O | – | – | – | inhibition [1]: Active
– | COc1ccc(/C=C2\SC(=S)NC2=O)cc1C#C[Si](C)(C)C | Dde | Non-Toxic | Active | –
> 32 | COc1ccc(/C=C2\SC(=S)NC2=O)cc1/C=C/C1CCCCC1 | – | – | – | –
0.53 | COc1ccc(/C=C2\SC(=S)NC2=O)cc1C#C[Si](C)(c1ccccc1)c1ccccc1 | Dde | Non-Toxic | Active | Activity [5]: Dde; inhibition [6]: Active; inhibition [7]: Active
> 32 | COc1ccc(/C=C2\SC(=S)NC2=O)cc1/C=C/C(C)(C)C | – | – | – | –
> 32 | COc1ccc(/C=C2\SC(=S)NC2=O)cc1/C=C/[Si](C)(C)C | – | – | – | –

Reference: ChEMBL document CHEMBL5131396, “Structure-activity relationship for the folding intermediate-selective inhibition of DYRK1A” (Eur J Med Chem, 2022)
